{
  "source": "patent US20240207373A1",
  "about": "“CYCLIC PEPTIDES FROM THE C-TERMINUS OF ACETYLCHOLINESTERASE FOR TREATMENT OF SKIN DISORDERS AND FOR COSMETICAL USE” (priority 2020, published 2024)",
  "key": {"HaCaT cell line": {"tested_on": "HaCaT cell line", "test": "Cell viability (cell toxicity) in HaCaT cell line", "format": "cell-based, human", "settings": "FIG. 3A", "excerpt": "The inventors next examined the ability of the acetylcholinesterase-derived peptides, T30 and T15, to induce proliferation of the HaCaT cell line and also tested cell viability to determine cell toxicity of NBP-14, T15 and T30 to the HaCaT cell line."}, "[1]": {"tested_on": "keratinocyte cell line HaCaTs", "test": "Intracellular calcium influx in keratinocyte cell line HaCaTs", "format": "cell-based, human", "settings": "in presence of T30, FIG. 2", "excerpt": "As described in the examples, the inventors performed intracellular calcium imaging and cell proliferation assays on the keratinocyte cell line, HaCaTs, a widely used and characterized model for human keratinocytes.\nThe inventors examined the ability of the acetylcholinesterase-derived linear peptides, T30 and T15, and the cyclic peptide NBP-14, to induce intracellular calcium influx into the keratinocyte cell line, and the results are shown in FIG. 2."}},
  "note": "Where a SMILES comes first, the peptide text is derived from it. Where no end group is shown, it is not given here.",
  "data": [
    {"compound": "NQFDHYSKQDRCSDL [T15]", "values": [
      {"measurement": "cell viability / cytotoxic effects", "setting": "HaCaT cell line", "value": "do not show induced significant cytotoxic effects"}
    ]},
    {"compound": "KAEFHRWSSYMVHWKNQFDHYSKQDRCSDL [T30]", "values": [
      {"measurement": "cell viability / cytotoxic effects", "setting": "HaCaT cell line", "value": "do not show induced significant cytotoxic effects"}
    ]},
    {"compound": "CSCC[C@@H]1NC(=O)[C@H](Cc2ccc(O)cc2)NC(=O)[C@H](CO)NC(=O)[C@H](CO)NC(=O)[C@H](Cc2c[nH]c3ccccc23)NC(=O)[C@H](CCCNC(=N)N)NC(=O)[C@H](Cc2c[nH]cn2)NC(=O)[C@H](Cc2ccccc2)NC(=O)[C@H](CCC(=O)O)NC(=O)[C@H](C)NC(=O)[C@H](CCCCN)NC(=O)[C@H](Cc2c[nH]c3ccccc23)NC(=O)[C@H](Cc2c[nH]cn2)NC(=O)[C@H](C(C)C)NC1=O", "note": "[NBP-14] (cyclo(AEFHRWSSYMVHWK))", "values": [
      {"measurement": "inhibition of T30-induced intracellular calcium influx", "setting": "[1]", "value": "significantly inhibit the effects of T30"},
      {"measurement": "cell viability / cytotoxic effects", "setting": "HaCaT cell line", "value": "do not show induced significant cytotoxic effects"}
    ]}
  ]
}
